Assay results from US20060252807A1, “Novel ortho-terphenyl inhibitors of p38 kinase and methods of treating inflammatory disorders” (Kalypsys, Inc., priority 2005, published 2006).

target: T1, active p38 alpha enzyme (Upstate Biotechnology) (Homo sapiens, UniProt Q16539); assay: p38α biochemical assay (ATP turnover, luminescent detection, Cambrex PKlight); details: p38α kinase; Table 1 Biological Activity
T1 construct: purchased Upstate Biotechnology
Summary of the method: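 Measures total ATP turnover by luminescence after human p38α phosphorylates full MapkapK2 protein. Final ATP is 1.4 uM, and incubation runs 2 hours at 30C. The buffer includes 100 mM MgCl2, 4 mM CaCl2 and 1 mg/ml BSA.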

T1 sequence (Q16539 whole entry): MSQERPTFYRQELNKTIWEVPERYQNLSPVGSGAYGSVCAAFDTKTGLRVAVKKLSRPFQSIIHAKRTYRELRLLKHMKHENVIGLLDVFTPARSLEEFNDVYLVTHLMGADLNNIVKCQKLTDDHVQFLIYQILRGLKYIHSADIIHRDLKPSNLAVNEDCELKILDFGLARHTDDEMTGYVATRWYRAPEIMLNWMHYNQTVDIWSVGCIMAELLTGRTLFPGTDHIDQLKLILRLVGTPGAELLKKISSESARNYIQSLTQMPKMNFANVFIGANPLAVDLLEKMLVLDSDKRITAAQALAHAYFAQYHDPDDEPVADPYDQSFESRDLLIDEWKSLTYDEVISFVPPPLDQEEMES

IC50 | SMILES
> 1000 nM | CC(C)NC(=O)c1csc(-c2c(-c3ccc(F)cc3)n[nH]c2C2CCN(C(=O)c3cc([N+](=O)[O-])ccc3O)CC2)n1 [Example 948]
> 1000 nM | CC(C)NC(=O)c1csc(-c2c(-c3ccc(F)cc3)n[nH]c2C2CCN(C(=O)c3cc(F)ccc3[N+](=O)[O-])CC2)n1 [Example 950]
> 1000 nM | COc1ccc(Cl)cc1C(=O)N1CCC(c2[nH]nc(-c3ccc(F)cc3)c2-c2nc(C(=O)NC(C)C)cs2)CC1 [Example 952]
> 1000 nM | COc1cc(Cl)ccc1C(=O)N1CCC(c2[nH]nc(-c3ccc(F)cc3)c2-c2nc(C(=O)NC(C)C)cs2)CC1 [Example 953]
> 1000 nM | CC(C)NC(=O)c1csc(-c2c(-c3ccc(F)cc3)n[nH]c2C2CCN(C(=O)Cc3ccc(O)c(Cl)c3)CC2)n1 [Example 954]
> 1000 nM | COc1cc(C(=O)N2CCC(c3[nH]nc(-c4ccc(F)cc4)c3-c3nc(C(=O)NC(C)C)cs3)CC2)cc(Cl)n1 [Example 955]
> 1000 nM | CC(C)NC(=O)c1csc(-c2c(-c3ccc(F)cc3)n[nH]c2C2CCN(C(=O)c3ccc4cc(O)ccc4c3)CC2)n1 [Example 956]
> 1000 nM | CC(C)NC(=O)c1csc(-c2c(-c3ccc(F)cc3)n[nH]c2C2CCN(C(=O)c3c(O)ccc4ccccc34)CC2)n1 [Example 957]
> 1000 nM | CC(C)NC(=O)c1csc(-c2c(-c3ccc(F)cc3)n[nH]c2C2CCN(C(=O)c3ccc4ccccc4c3O)CC2)n1 [Example 959]
> 1000 nM | CC(C)NC(=O)c1csc(-c2c(-c3ccc(F)cc3)n[nH]c2C2CCN(C(=O)c3ccc4cccc(O)c4n3)CC2)n1 [Example 960]
> 1000 nM | CC(C)NC(=O)c1csc(-c2c(-c3ccc(F)cc3)n[nH]c2C2CCN(C(=O)C(C)NC(=O)OC(C)(C)C)CC2)n1 (stereo not shown) [Example 961]
≤ 1000 nM | CC(C)NC(=O)c1csc(-c2c(-c3ccc(F)cc3)n[nH]c2C2CCN(C(=O)CCc3nc4ccccc4[nH]3)CC2)n1 [Example 964]
> 1000 nM | CC(C)NC(=O)c1csc(-c2c(-c3ccc(F)cc3)n[nH]c2C2CCN(C(=O)c3cccc(Cl)c3Cl)CC2)n1 [Example 965]
> 1000 nM | CC(C)NC(=O)c1csc(-c2c(-c3ccc(F)cc3)n[nH]c2C2CCN(C(=O)c3ccc(Cl)cc3Cl)CC2)n1 [Example 966]
> 1000 nM | CC(C)NC(=O)c1csc(-c2c(-c3ccc(F)cc3)n[nH]c2C2CCN(C(=O)c3cc(F)c(F)cc3Cl)CC2)n1 [Example 972]
> 1000 nM | CC(C)NC(=O)c1csc(-c2c(-c3ccc(F)cc3)n[nH]c2C2CCN(C(=O)c3cc(F)c(Cl)cc3F)CC2)n1 [Example 973]
> 1000 nM | CCN(CC)c1ccc(C(=O)N2CCC(c3[nH]nc(-c4ccc(F)cc4)c3-c3nc(C(=O)NC(C)C)cs3)CC2)cc1 [Example 974]

IC50 | SMILES
> 1000 nM | COc1cc(/C=C/C(=O)N2CCC(c3[nH]nc(-c4ccc(F)cc4)c3-c3nc(C(=O)NC(C)C)cs3)CC2)ccc1O [Example 975]
> 1000 nM | CC(C)NC(=O)c1csc(-c2c(-c3ccc(F)cc3)n[nH]c2C2CCN(C(=O)c3cc4cc(Cl)ccc4o3)CC2)n1 [Example 978]
> 1000 nM | COc1ccc([N+](=O)[O-])c(C(=O)N2CCC(c3[nH]nc(-c4ccc(F)cc4)c3-c3nc(C(=O)NC(C)C)cs3)CC2)c1 [Example 979]
> 1000 nM | COc1cc(C(=O)N2CCC(c3[nH]nc(-c4ccc(F)cc4)c3-c3nc(C(=O)NC(C)C)cs3)CC2)cc(OC)c1O [Example 980]
> 1000 nM | CC(C)NC(=O)c1csc(-c2c(-c3ccc(F)cc3)n[nH]c2C2CCN(C(=O)c3ccccc3-c3ccccc3)CC2)n1 [Example 981]
> 1000 nM | CC(C)NC(=O)c1csc(-c2c(-c3ccc(F)cc3)n[nH]c2C2CCN(C(=O)c3ccc(Br)cc3)CC2)n1 [Example 983]
> 1000 nM | CC(C)NC(=O)c1csc(-c2c(-c3ccc(F)cc3)n[nH]c2C2CCN(C(=O)c3ccc([N+](=O)[O-])cc3Cl)CC2)n1 [Example 986]
≤ 1000 nM | CC(C)NC(=O)c1csc(-c2c(-c3ccc(F)cc3)n[nH]c2C2CCN(C(=O)c3ccc(Cl)c([N+](=O)[O-])c3)CC2)n1 [Example 988]
> 1000 nM | CC(C)NC(=O)c1csc(-c2c(-c3ccc(F)cc3)n[nH]c2C2CCN(C(=O)c3cccc(Br)n3)CC2)n1 [Example 990]
≤ 1000 nM | CC(C)NC(=O)c1csc(-c2c(-c3ccc(F)cc3)n[nH]c2C2CCN(C(=O)c3cncc(Br)c3)CC2)n1 [Example 991]
> 1000 nM | CC(C)Cc1ccc(C(C)C(=O)N2CCC(c3[nH]nc(-c4ccc(F)cc4)c3-c3nc(C(=O)NC(C)C)cs3)CC2)cc1 (stereo not shown) [Example 994]
> 1000 nM | CC(C)NC(=O)c1csc(-c2c(-c3ccc(F)cc3)n[nH]c2C2CCN(C(=O)c3c(F)c(F)c(F)c(F)c3F)CC2)n1 [Example 996]
> 1000 nM | COc1cc(OC)c(C(=O)N2CCC(c3[nH]nc(-c4ccc(F)cc4)c3-c3nc(C(=O)NC(C)C)cs3)CC2)cc1OC [Example 998]
> 1000 nM | COc1ccc(C(=O)N2CCC(c3[nH]nc(-c4ccc(F)cc4)c3-c3nc(C(=O)NC(C)C)cs3)CC2)c(OC)c1OC [Example 1000]
> 1000 nM | CC(C)NC(=O)c1csc(-c2c(-c3ccc(F)cc3)n[nH]c2C2CCN(C(=O)c3ccccc3Cc3ccccc3)CC2)n1 [Example 1001]
> 1000 nM | CC(C)NC(=O)c1csc(-c2c(-c3ccc(F)cc3)n[nH]c2C2CCN(C(=O)c3cccc(Oc4ccccc4)c3)CC2)n1 [Example 1002]

Continued, molecule first:

SMILES | IC50
CC(C)NC(=O)c1csc(-c2c(-c3ccc(F)cc3)n[nH]c2C2CCN(C(=O)c3ccc([N+](=O)[O-])c(O)c3)CC2)n1 [Example 946] | > 1000 nM
CC(C)NC(=O)c1csc(-c2c(-c3ccc(F)cc3)n[nH]c2C2CCN(C(=O)c3cc(O)ccc3[N+](=O)[O-])CC2)n1 [Example 947] | ≤ 1000 nM
CC(C)NC(=O)c1csc(-c2c(-c3ccc(F)cc3)n[nH]c2C2CCN(C(=O)c3cc([N+](=O)[O-])ccc3F)CC2)n1 [Example 949] | > 1000 nM
CC(C)NC(=O)c1csc(-c2c(-c3ccc(F)cc3)n[nH]c2C2CCN(C(=O)c3ccc(F)c([N+](=O)[O-])c3)CC2)n1 [Example 951] | > 1000 nM
CC(C)NC(=O)c1csc(-c2c(-c3ccc(F)cc3)n[nH]c2C2CCN(C(=O)c3cc4ccccc4cc3O)CC2)n1 [Example 958] | > 1000 nM
CC(C)NC(=O)c1csc(-c2c(-c3ccc(F)cc3)n[nH]c2C2CCN(C(=O)C(C)NC(=O)OC(C)(C)C)CC2)n1 (stereo not shown) [Example 962] | > 1000 nM
CC(C)NC(=O)c1csc(-c2c(-c3ccc(F)cc3)n[nH]c2C2CCN(C(=O)c3ccccc3C(F)(F)F)CC2)n1 [Example 963] | > 1000 nM
CC(C)NC(=O)c1csc(-c2c(-c3ccc(F)cc3)n[nH]c2C2CCN(C(=O)c3cc(Cl)ccc3Cl)CC2)n1 [Example 967] | > 1000 nM
CC(C)NC(=O)c1csc(-c2c(-c3ccc(F)cc3)n[nH]c2C2CCN(C(=O)c3cc(F)c(F)c(O)c3F)CC2)n1 [Example 968] | > 1000 nM
CC(C)NC(=O)c1csc(-c2c(-c3ccc(F)cc3)n[nH]c2C2CCN(C(=O)/C=C/c3ccc4c(c3)OCO4)CC2)n1 [Example 969] | > 1000 nM
Cc1ccc(C(=O)CCC(=O)N2CCC(c3[nH]nc(-c4ccc(F)cc4)c3-c3nc(C(=O)NC(C)C)cs3)CC2)cc1 [Example 970] | > 1000 nM
CCCCCc1ccc(C(=O)N2CCC(c3[nH]nc(-c4ccc(F)cc4)c3-c3nc(C(=O)NC(C)C)cs3)CC2)cc1 [Example 971] | > 1000 nM
COc1ccc(/C=C/C(=O)N2CCC(c3[nH]nc(-c4ccc(F)cc4)c3-c3nc(C(=O)NC(C)C)cs3)CC2)cc1O [Example 976] | > 1000 nM
CCCCOc1ccc(C(=O)N2CCC(c3[nH]nc(-c4ccc(F)cc4)c3-c3nc(C(=O)NC(C)C)cs3)CC2)cc1 [Example 977] | ≤ 1000 nM
CC(C)NC(=O)c1csc(-c2c(-c3ccc(F)cc3)n[nH]c2C2CCN(C(=O)c3cccc(Br)c3)CC2)n1 [Example 982] | > 1000 nM
CC(C)NC(=O)c1csc(-c2c(-c3ccc(F)cc3)n[nH]c2C2CCN(C(=O)c3cccc(Cl)c3[N+](=O)[O-])CC2)n1 [Example 984] | > 1000 nM
CC(C)NC(=O)c1csc(-c2c(-c3ccc(F)cc3)n[nH]c2C2CCN(C(=O)c3cc([N+](=O)[O-])ccc3Cl)CC2)n1 [Example 985] | > 1000 nM
CC(C)NC(=O)c1csc(-c2c(-c3ccc(F)cc3)n[nH]c2C2CCN(C(=O)C3=CC=CC(Cl)C=C3[N+](=O)[O-])CC2)n1 (stereo not shown) [Example 987] | > 1000 nM
CC(C)NC(=O)c1csc(-c2c(-c3ccc(F)cc3)n[nH]c2C2CCN(C(=O)c3cc(Cl)ccc3[N+](=O)[O-])CC2)n1 [Example 989] | > 1000 nM
CC(C)NC(=O)c1csc(-c2c(-c3ccc(F)cc3)n[nH]c2C2CCN(C(=O)c3cc(F)c(F)cc3[N+](=O)[O-])CC2)n1 [Example 992] | > 1000 nM
CC(C)NC(=O)c1csc(-c2c(-c3ccc(F)cc3)n[nH]c2C2CCN(C(=O)Cc3ccc(C(F)(F)F)cc3)CC2)n1 [Example 993] | > 1000 nM
CC(C)NC(=O)c1csc(-c2c(-c3ccc(F)cc3)n[nH]c2C2CCN(C(=O)c3cc(Cl)c(O)c(Cl)c3)CC2)n1 [Example 995] | > 1000 nM
COc1cc(OC)c(C(=O)N2CCC(c3[nH]nc(-c4ccc(F)cc4)c3-c3nc(C(=O)NC(C)C)cs3)CC2)c(OC)c1 [Example 997] | > 1000 nM
COc1cc(C(=O)N2CCC(c3[nH]nc(-c4ccc(F)cc4)c3-c3nc(C(=O)NC(C)C)cs3)CC2)cc(OC)c1OC [Example 999] | > 1000 nM
CC(C)NC(=O)c1csc(-c2c(-c3ccc(F)cc3)n[nH]c2C2CCN(C(=O)c3ccccc3Oc3ccccc3)CC2)n1 [Example 1003] | > 1000 nM
CC(C)NC(=O)c1csc(-c2c(-c3ccc(F)cc3)n[nH]c2C2CCN(C(=O)c3ccc(Oc4ccccc4)cc3)CC2)n1 [Example 1004] | > 1000 nM
CC(C)NC(=O)c1csc(-c2c(-c3ccc(F)cc3)n[nH]c2C2CCN(C(=O)c3ccc(-c4ccc(O)cc4)cc3)CC2)n1 [Example 1005] | > 1000 nM
Cc1cc(C(=O)N2CCC(c3[nH]nc(-c4ccc(F)cc4)c3-c3nc(C(=O)NC(C)C)cs3)CC2)ccc1Br [Example 1006] | > 1000 nM
